The term MIC denotes the smallest concentration in the dilution series that meets the test's criterion for growth inhibition. As usually defined, the IC50 is the concentration at which inhibition is half-maximal. What is called Ki is a measure of affinity in units of concentration, obtained from inhibition or displacement. A lower Ki goes with higher affinity.

Where two headings read alike, the source gives them in different places.

Experiment [1] concerns S. pneumoniae R6 strain. More on the design: method as in PMID 28946671. The conditions noted are these: previously reported; cited from earlier work.
For experiment [2], the target named is T1, sChoK (Streptococcus pneumoniae, UniProt Q8DPI4). Also on record: method as in doi:10.30721/fsab2018.v1.i2.40. The note with it: previously reported; read-out: IC50 against sChoK; cited from earlier work.
T1 sequence (Q8DPI4 entry or part of it): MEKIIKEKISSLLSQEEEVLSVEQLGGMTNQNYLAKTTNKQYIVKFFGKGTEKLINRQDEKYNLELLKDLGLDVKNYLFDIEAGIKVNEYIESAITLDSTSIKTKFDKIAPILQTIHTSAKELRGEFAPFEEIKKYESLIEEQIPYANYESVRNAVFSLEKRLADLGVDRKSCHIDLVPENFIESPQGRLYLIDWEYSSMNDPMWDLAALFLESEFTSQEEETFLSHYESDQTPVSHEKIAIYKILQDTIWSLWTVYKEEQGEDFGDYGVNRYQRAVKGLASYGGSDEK
Experiment [3] has as its system S. pneumoniae. The experiment in a line: Interaction with vancomycin-provoked cell lysis. In kind it is cell-based, Streptococcus pneumoniae. The note with it: O.D. changes with vancomycin in presence of inhibitor. The procedure: (§1) Figure 3 Effect of drugs on the autolytic process. (A) Percent changes in O.D. were measured in cultures of S. pneumoniae exposed to various concentrations of drugs expressed as multiples of MIC. Percent changes were calculated by comparing initial and final O.D. values. (B) O.D. changes in cells treated with vancomycin (VAN) in the presence and absence of HC-3 (HC3), MN58b (MN), and RSM-932A (RSM). (C) Detergent induced lysis of cells grown to saturation in the presence of 0.5 MIC MN58b and RSM-932A. (D) Phosphate induced lysis of cells grown to saturation in the presence of 0.5 MIC MN58b and RSM-932A.
Autolysis is a process of cell lysis and death that is mediated by LTAs via choline binding autolysins[19] such as LytA. […] In light of the non-specificity observed with HC-3 (being able to interfere with both ChoKs and the autolytic process), it seemed logical to check the specificity of MN58b and RSM-932A for sChoK inhibition. The interaction of MN58b, RSM-932A, and HC-3 with bacteriolytic antibiotic vancomycin was determined (Fig. 3B). […] The non-specificity of HC-3 may help to explain its weakness against sChoK.

The subject of experiment [4] is S. pneumoniae R6 strain. The experiment in a line: Minimum inhibitory concentration (MIC) and minimum lethal concentration (MLC) in culture. The experiment is classed as cell-based, Streptococcus pneumoniae. The note with it: for MLC: S. pneumoniae R6, 99.9% of cells killed by CFU counts; for MIC: Streptococcus pneumoniae, R6STRAIN, S. pneumoniae R6, BHI-CAT, O.D.610 of 0 at end of culture. As to the method: Seven μL of a glycerol stock of the S. pneumoniae R6 strain was used to inoculate 7 mL of Brain Heart Infusion broth (BHI, Accumedia, Sydney, Australia) supplemented with 5 units/mL catalase (BHI-CAT). This starter culture was incubated at 37 °C in a water bath until an optical density at 610 nm (OD610) […]. Forty μL of this starter culture was used to inoculate 40 mL of BHI-CAT media with or without varying concentrations of inhibitor.
MIC was determined as the concentration inhibitor at which an O.D.610 of 0 was measured at the end of culture time. MLC was defined as the concentration at which 99.9% of cells were killed at the end of culturing time as determined by CFU counts using Meuller–Hinton plates.

The target of experiment [5] is T1, sChoK. The experiment in a line: IC50 by colorimetric method with BL21 (DE3) extracts expressing recombinant sChoK. In kind it is biochemical. As to the method: (§2) When using cell extracts such as BL21 (DE3) extracts containing sChoK or S. pneumoniae extracts as the enzyme source, a colorimetric method was used to quantify Cho consumption and PCho production as described previously.
The IC50s of each drug against sChoK were measured using two methods: the indirect ldh/pk method that relied on recombinant sChoK and which indirectly measured consumption of ATP[14] and a previously reported colorimetric method that relied on BL21 (DE3) extracts expressing recombinant sChoK, which directly measured the consumption of choline and the production of phosphocholine. Inhibitors were similarly effective in a complex cell extract and in a simplified system relying on a purified enzyme. […] RSM-932A was stronger that MN58b by 1–2 orders of magnitude.

Experiment [6] concerns the target T1, sChoK. The experiment in a line: IC50 by LDH/PK with purified recombinant sChoK. The experiment is classed as biochemical. The procedure:
Purified sChoK was used in these assays. Steady-state enzymatic assays were monitored with the pyruvate kinase/lactate dehydrogenase (PK/LDH) reaction. The steady-state rate of ADP formation was calculated using an extinction coefficient of 6,200 M^−1 cm^−1 to determine linear reductions in NADH concentrations that were observed by absorbance at 340 nm. Measurements were carried out at 25 °C in a UV-Star 96-well plate (Greiner) placed in a Synergy HT microplate reader (Biotek). Each well contained 200 µL of a solution containing 22 nM sChoK enzyme, 100 mM Tris pH 8, 10 mM MgCl2, 150 mM NaCl, 150 mM KCl, […], 0.66 mM phosphoenolpyruvate, 20 units of LDH, and 10 units of PK, choline. ATP. […] The kcat was calculated by dividing the Vmax by the enzyme concentration.
Using the conditions described above, the concentration of choline was set to the Km and increasing amounts of inhibitor were tested. Percent inhibition was determined. The IC50 was determined as the concentration of inhibitor required to reach 50% inhibition.

Experiment [7] relates to S. pneumoniae. The experiment in a line: Detergent and phosphate induced lysis of cells grown with 0.5 MIC inhibitor. The experiment is classed as cell-based, Streptococcus pneumoniae. The note with it: cells grown in presence of 0.5 MIC. The procedure: as §1
Given the observation that MN58b and RSM-932A were sChoK inhibitors, our expectation was that cells treated with these inhibitors would show a decrease in overall LTA content because a decrease in phosphocholine availability would reduce the overall production of LTA residues and, by extension, LTA molecules. A reduction in LTA content, in turn, should help desensitize cells to autolytic induction. Although autolysin proteins would be released, they would not be able to dock on the cell surface because the autolysin choline binding domains would have fewer choline containing LTA molecules with which to interact. Both LTA reduction and cell […] had previously been observed with HC-3[17].

Experiment [8] relates to S. pneumoniae. The experiment in a line: Percent O.D. changes of cultures exposed to multiples of MIC (bacteriostatic/bacteriolytic). The experiment is classed as cell-based, Streptococcus pneumoniae. The conditions noted are these: cultures grown to O.D. 0.500, concentrations as multiples of MIC. As to the method: as §1
The target of experiment [9] is T1, sChoK. The experiment in a line: Colorimetric choline kinase assay with S. pneumoniae extracts. The experiment is classed as biochemical. The conditions noted are these: choline consumption.
Source text: as §2
In light of the inconsistent results between sChoK inhibition by MN58b and RSM-932A which are both known choline kinase inhibitors, we repeated the colorimetric experiments using S. pneumoniae extracts as the source of sChoK, The goal of the experiment was to determine whether or not differences in sChoK inhibition could be detected in a more native environment than that provided by extracts of E. coli overexpressing sChoK or purified sChoK. […] This agonism was confirmed by mass spectrometry (data not shown) and was also found to be ATP dependent, thereby supporting the inference that RSM-932A was still affecting sChoK activity, although in the opposite direction.

Experiment [10] addresses T1, sChoK. The experiment in a line: Substrate-inhibitor competition (competitivity) by LDH/PK. The experiment is classed as biochemical. As to the method: The mechanism of action of the inhibitors with respect to each substrate was determined using a previously described method[13],[14]. Briefly, using the IC50 of each inhibitor determined at the Km of choline, the concentration of one substrate was kept constant, and initial velocities were measured while varying the second substrate in the presence and absence of the inhibitor. The percentage of inhibition (%I) was determined by dividing each initial velocity in the presence of the inhibitor with its corresponding initial velocity in the absence of compound. %I was plotted against concentration and fitted using a two-parameter-fit nonlinear regression algorithm of GnuPlot v 4.3 into Eq. (2).2 %I=100×(([I]/Ki+[S][I]/αKsKi/(1+[S]/Ks+[I]/Ki+[S][I]/αKsKi)) where [S] is the concentration of the varied substrate, [I] is the concentration of inhibitor, Ks is the dissociation constant of the substrate (assumed to be equal to the Km), Ki is the dissociation constant of the inhibitor, and α is a numerical constant that measures the effect the substrate has on the binding of the inhibitor and vice versa.
A mechanistic analysis was performed for each inhibitor by performing steady-state enzymatic reactions with sChoK in which one substrate was varied while the other substrate was fixed both in assays with and without inhibitor fixed at a concentration equal to its IC50. sChoK inhibition was calculated as a percentage (%I) calculated by dividing the initial velocity at each substrate concentration with inhibitor by counterpart initial velocities in the absence of inhibitor. %I values were plotted against substrate concentration. The resulting data was fitting to an Eq. (2) and Ki and α values calculated.

The subject of experiment [11] is S. pneumoniae R6 cells. The experiment in a line: Western blot detection of lipoteichoic acid (LTA). In kind it is cell-based, Streptococcus pneumoniae. The conditions noted are these: cells grown to saturation with 0.5 MIC. As to the method:
R6 cells were cultured to saturation in either BHI-cat alone or BHI-cat 0.5 MIC of MN58b or RSM-932A. One milliliter (1 mL) of cell samples was centrifuged at 3,000g, sonicated 3 × 2 min on ices. Western blots were performed as described[3] while total protein on the membrane was measured by fluorescence according to Quickstain instructions.
In order to quantify LTA production, western blots were performed on extracts of cells grown to saturation in the presence of 0.5 MIC MN58b or RSM-932A. LTA band patterns clearly differed between treatments. […] It is important to note that each size band in an LTA western blot differs from the lower one by a single LTA residue (Fig. 4A)[19].

On to `C[N+]1(C)CCOC(O)(c2ccc(-c3ccc(C4(O)C[N+](C)(C)CCO4)cc3)cc2)C1` (centres unmarked) [HC-3, Hemicholinium-3], for which the MIC in experiment [1] was 5,400 µM. For the same compound, the IC50 in [2] is 2700 µM. In addition, the “Effect on cell lysis provoked by vancomycin” value (“Effect on cell lysis provoked” below) in [3] is “prevented cell lysis provoked by vancomycin”.
As to `CN(C)c1cc[n+](Cc2ccc(CCCCc3ccc(C[n+]4ccc(N(C)C)cc4)cc3)cc2)cc1` [MN58b, 1,4-[4–4′-Bis-{[4-(dimethylamine)pyridinium-1-yl]methyl}diphenyl]butane dibromide], in [4], the MLC turned out to be 20 µM and the MIC came out at 10 µM. Besides, the IC50 in experiment [5] worked out at 225 µM. Further, the IC50 in experiment [6] came to 645 µM. Besides, the “Sensitivity of cells to induced autolysis” value in experiment [7] is “primed the cells to be autolyzed”. Further, the “Effect on cell lysis provoked” value in [3] is recorded as “minimal to no effect”. Besides, in experiment [8], the “Bacteriostatic or bacteriolytic action” value is “bacteriostatic up to a concentration of 50 × MIC after which they become bacteriolytic”. Also, in experiment [9], the “Effect on choline kinase activity in S. pneumoniae extracts” value is recorded as “continued to function as an inhibitor of choline kinase activity”. Also, in experiment [10] ((A) inhibitor vs ATP), the Kminh/Kmfree was found to be 3.48, the “Mechanism of Inhibition” value is given as “Mixed”, the Vmaxinh/Vmaxfree turned out to be 0.76 and the α amounted to 6.0 ± 2.2. In experiment [10] ((A) inhibitor vs ATP), this compound gave a Ki of 182 ± 28.1 µM. In experiment [10] ((B) inhibitor vs choline), the Kminh/Kmfree was determined as 2.3, the “Mechanism of Inhibition” value is “Mixed”, the Vmaxinh/Vmaxfree came out at 0.69 and affinity was put at a Ki of 124 ± 19.2 µM. In experiment [11], the LTA size pattern entry is reported as “marked increase in the smaller sizes of LTA” and the “Total LTA production” value is “marked increase in total LTA production”.
In [4], `CN(c1ccc(Cl)cc1)c1cc[n+](Cc2ccc(-c3ccc(C[n+]4ccc(N(C)c5ccc(Cl)cc5)c5ccccc54)cc3)cc2)c2ccccc12.[Br-].[Br-]` [RSM-932A, 1,1′-([1,1′-biphenyl]-4,4′-diylbis(methylene))bis(4-((4-chlorophenyl)(methyl)amino)quinolin-1-ium) bromide] registered an MLC of 1.6 µM and an MIC of 0.4 µM. For the same compound, in [5], the IC50 was found to be 0.5 µM. Moreover, the IC50 in experiment [6] came to 22 µM. Further, in experiment [7], the “Sensitivity of cells to induced autolysis” value is recorded as “equally sensitive to autolysis as untreated controls”. For the same compound, in [3], the “Effect on cell lysis provoked” value is on record as “minimal to no effect”. Also, the “Bacteriostatic or bacteriolytic action” value in experiment [8] is “bacteriostatic up to a concentration of 50 × MIC after which they become bacteriolytic”. In addition, the “Effect on choline kinase activity in S. pneumoniae extracts” value in [9] is on record as “somewhat inhibitory at lower concentrations, it functioned as an agonist of choline kinase activity at higher concentrations”. Further, in experiment [10] ((A) inhibitor vs ATP), the Kminh/Kmfree is 0.92, the “Mechanism of Inhibition” value was “Noncompetitive”, the Vmaxinh/Vmaxfree was found to be 0.61 and the α is listed as 1.1 ± 0.17. Also, the Ki in experiment [10] ((A) inhibitor vs ATP) is 35.8 ± 3.2 µM. Besides, in experiment [10] ((B) inhibitor vs choline), the “Mechanism of Inhibition” value is recorded as “Mixed”, the Vmaxinh/Vmaxfree stood at 0.76, the α was found to be 8.1 ± 1.8 and affinity was put at a Ki of 10.6 ± 0.9 µM. Further, in experiment [11], the LTA size pattern entry is on record as “larger size polymers were favored” and the “Total LTA production” value is listed as “overall production remained unchanged”.

(Values after article PMC7508948, “Identification and validation of novel and more effective choline kinase inhibitors against Streptococcus pneumoniae” (Scientific Reports, 2020).)
